# Experimental data: PubChem BioAssay (NCI)
#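 How tested: cells in 96-well plates exposed to compound for 48 hours at five concentrations. At the TGI there is no net growth.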
# How the values were obtained:
# Test in all cases: NCI anticancer screen, dose series, 48 h
# [1] = tested on: EKVX NSCLC
# [2] = tested on: SNB-75 CNS
# [3] = tested on: COLO 205 colon
# [4] = tested on: UACC-62 melanoma
# [5] = tested on: MDA-MB-231 breast
# [6] = tested on: NCI/ADR-RES ovarian
# [7] = tested on: NCI-H522 lung
# [8] = tested on: RXF 393 renal
# [9] = tested on: HOP-62 NSCLC
# [10] = tested on: A549 NSCLC
# [11] = tested on: HOP-92 NSCLC
# [12] = tested on: OVCAR-5 ovarian
# [13] = tested on: MOLT-4 leukemia
# [14] = tested on: SN12C renal
# [15] = tested on: U251 CNS
# [16] = tested on: CCRF-CEM leukemia
# [17] = tested on: SW-620 colon
# [18] = tested on: HT29 colon
# [19] = tested on: UACC-257 melanoma
# [20] = tested on: NCI-H226 lung
# [21] = tested on: UO-31 renal
# [22] = tested on: HCC-2998 colon
# [23] = tested on: SF-268 CNS
# [24] = tested on: OVCAR-8 ovarian
# [25] = tested on: MALME-3M melanoma
# [26] = tested on: SK-MEL-5 melanoma
# [27] = tested on: A498 renal
# [28] = tested on: HCT-116 colon
# [29] = tested on: HCT-15 colon
# [30] = tested on: OVCAR-3 ovarian
# [31] = tested on: MCF7 breast
# [32] = tested on: SNB-19 CNS
# [33] = tested on: HS 578T breast
# [34] = tested on: SF-295 CNS
# [35] = tested on: IGROV1 ovarian
# [36] = tested on: MDA-MB-435
# [37] = tested on: NCI-H23 lung
# [38] = tested on: KM12 colon
# [39] = tested on: TK-10 renal
# [40] = tested on: LOX IMVI melanoma
# [41] = tested on: CAKI-1 renal
# [42] = tested on: 786-0 renal
# [43] = tested on: SK-MEL-2 melanoma
# [44] = tested on: DU-145 prostate
# [45] = tested on: T-47D breast
# [46] = tested on: SF-539 CNS
# [47] = tested on: MDA-N
# [48] = tested on: ACHN renal
# [49] = tested on: PC-3 prostate
# [50] = tested on: HL-60(TB) leukemia
# [51] = tested on: BT-549 breast
# [52] = tested on: SR leukemia
# [53] = tested on: M14 melanoma
# [54] = tested on: SK-OV-3 ovarian
# [55] = tested on: K-562 leukemia
# [56] = tested on: RPMI-8226 leukemia
# [57] = tested on: NCI-H460 lung
# [58] = tested on: SK-MEL-28 melanoma
# [59] = tested on: OVCAR-4 ovarian
structure (smiles),measurement,setting,value
CNC(=S)/C(C#N)=C(\N)N1CCN(C)CC1,TGI,[1],> 100 µM
same,TGI,[2],> 100 µM
same,TGI,[3],> 100 µM
same,TGI,[4],> 100 µM
same,TGI,[5],> 100 µM
same,TGI,[6],> 100 µM
same,TGI,[7],> 100 µM
same,TGI,[8],> 100 µM
same,TGI,[9],> 100 µM
same,TGI,[10],> 100 µM
same,TGI,[11],> 100 µM
same,TGI,[12],> 100 µM
same,TGI,[13],> 100 µM
same,TGI,[14],> 100 µM
same,TGI,[15],> 100 µM
same,TGI,[16],> 100 µM
same,TGI,[17],> 100 µM
same,TGI,[18],> 100 µM
same,TGI,[19],> 100 µM
same,TGI,[20],> 100 µM
same,TGI,[21],> 100 µM
same,TGI,[22],> 100 µM
same,TGI,[23],> 100 µM
same,TGI,[24],> 100 µM
same,TGI,[25],> 100 µM
same,TGI,[26],> 100 µM
same,TGI,[27],> 100 µM
same,TGI,[28],> 100 µM
same,TGI,[29],> 100 µM
same,TGI,[30],> 100 µM
same,TGI,[31],> 100 µM
same,TGI,[32],> 100 µM
same,TGI,[33],> 100 µM
same,TGI,[34],> 100 µM
same,TGI,[35],> 100 µM
same,TGI,[36],> 100 µM
same,TGI,[37],> 100 µM
same,TGI,[38],> 100 µM
same,TGI,[39],> 100 µM
same,TGI,[40],> 100 µM
same,TGI,[41],> 100 µM
same,TGI,[42],> 100 µM
same,TGI,[43],> 100 µM
same,TGI,[44],> 100 µM
same,TGI,[45],> 100 µM
same,TGI,[46],> 100 µM
same,TGI,[47],> 100 µM
same,TGI,[48],> 100 µM
same,TGI,[49],> 100 µM
same,TGI,[50],> 100 µM
same,TGI,[51],> 100 µM
same,TGI,[52],> 100 µM
same,TGI,[53],> 100 µM
same,TGI,[54],> 100 µM
same,TGI,[55],> 100 µM
same,TGI,[56],> 100 µM
Cc1[nH]n(-c2ncc(C(=O)O)c(=O)[nH]2)c(=O)c1CCO,TGI,[1],> 100 µM
same,TGI,[2],> 100 µM
same,TGI,[57],> 100 µM
same,TGI,[3],> 100 µM
same,TGI,[4],> 100 µM
same,TGI,[5],> 100 µM
same,TGI,[58],> 100 µM
same,TGI,[6],> 100 µM
same,TGI,[7],> 100 µM
same,TGI,[8],> 100 µM
same,TGI,[9],> 100 µM
same,TGI,[10],> 100 µM
same,TGI,[11],> 100 µM
same,TGI,[12],> 100 µM
same,TGI,[13],> 100 µM
same,TGI,[14],> 100 µM
same,TGI,[15],> 100 µM
same,TGI,[16],> 100 µM
same,TGI,[17],> 100 µM
same,TGI,[18],> 100 µM
same,TGI,[19],> 100 µM
same,TGI,[20],> 100 µM
same,TGI,[21],> 100 µM
same,TGI,[22],> 100 µM
same,TGI,[23],> 100 µM
same,TGI,[24],> 100 µM
same,TGI,[25],> 100 µM
same,TGI,[59],> 100 µM
same,TGI,[26],> 100 µM
same,TGI,[27],> 100 µM
same,TGI,[28],> 100 µM
same,TGI,[29],> 100 µM
same,TGI,[30],> 100 µM
same,TGI,[31],> 100 µM
same,TGI,[32],> 100 µM
same,TGI,[33],> 100 µM
same,TGI,[34],> 100 µM
same,TGI,[35],> 100 µM
same,TGI,[36],> 100 µM
same,TGI,[37],> 100 µM
same,TGI,[38],> 100 µM
same,TGI,[39],> 100 µM
same,TGI,[40],> 100 µM
same,TGI,[41],> 100 µM
same,TGI,[42],> 100 µM
same,TGI,[43],> 100 µM
same,TGI,[44],> 100 µM
same,TGI,[45],> 100 µM
same,TGI,[46],> 100 µM
same,TGI,[47],> 100 µM
same,TGI,[48],> 100 µM
same,TGI,[49],> 100 µM
same,TGI,[50],> 100 µM
same,TGI,[51],> 100 µM
same,TGI,[52],> 100 µM
same,TGI,[53],> 100 µM
same,TGI,[54],> 100 µM
same,TGI,[55],> 100 µM
same,TGI,[56],> 100 µM
OC(CC(CC(O)(C(F)(F)F)C(F)(F)F)=NN=C(CC(O)(C(F)(F)F)C(F)(F)F)CC(O)(C(F)(F)F)C(F)(F)F)(C(F)(F)F)C(F)(F)F,TGI,[1],> 10 µM
same,TGI,[2],> 10 µM
same,TGI,[57],> 10 µM
same,TGI,[3],> 10 µM
same,TGI,[4],> 10 µM
same,TGI,[5],> 10 µM
same,TGI,[58],> 10 µM
same,TGI,[6],> 10 µM
same,TGI,[7],> 10 µM
same,TGI,[8],> 10 µM
same,TGI,[9],> 10 µM
same,TGI,[10],> 10 µM
same,TGI,[11],> 10 µM
same,TGI,[12],> 10 µM
same,TGI,[13],> 10 µM
same,TGI,[14],> 10 µM
same,TGI,[15],> 10 µM
same,TGI,[16],> 10 µM
same,TGI,[17],> 10 µM
same,TGI,[18],> 10 µM
same,TGI,[19],> 10 µM
same,TGI,[20],> 10 µM
same,TGI,[22],> 10 µM
same,TGI,[23],> 10 µM
same,TGI,[24],> 10 µM
same,TGI,[25],> 10 µM
same,TGI,[59],> 10 µM
same,TGI,[26],> 10 µM
same,TGI,[27],> 10 µM
same,TGI,[28],> 10 µM
same,TGI,[29],> 10 µM
same,TGI,[30],> 10 µM
same,TGI,[31],> 10 µM
same,TGI,[32],> 10 µM
same,TGI,[33],> 10 µM
same,TGI,[34],> 10 µM
same,TGI,[35],> 10 µM
same,TGI,[36],> 10 µM
same,TGI,[37],> 10 µM
same,TGI,[38],> 10 µM
same,TGI,[39],> 10 µM
same,TGI,[40],> 10 µM
same,TGI,[41],> 10 µM
same,TGI,[42],> 10 µM
same,TGI,[43],> 10 µM
same,TGI,[44],> 10 µM
same,TGI,[45],> 10 µM
same,TGI,[46],> 10 µM
same,TGI,[47],> 10 µM
same,TGI,[48],> 10 µM
same,TGI,[49],> 10 µM
same,TGI,[50],> 10 µM
same,TGI,[51],> 10 µM
same,TGI,[52],> 10 µM
same,TGI,[53],> 10 µM
same,TGI,[54],> 10 µM
same,TGI,[55],> 10 µM
same,TGI,[56],> 10 µM
CCOC(=O)[C@@H]1[C@@H]2NC(=O)N[C@@]1(C)Oc1ccccc12,TGI,[1],> 100 µM
same,TGI,[2],> 100 µM
same,TGI,[57],> 100 µM
same,TGI,[3],> 100 µM
same,TGI,[4],> 100 µM
same,TGI,[5],> 100 µM
same,TGI,[58],> 100 µM
same,TGI,[6],> 100 µM
same,TGI,[7],> 100 µM
same,TGI,[8],> 100 µM
same,TGI,[9],> 100 µM
same,TGI,[11],> 100 µM
same,TGI,[12],> 100 µM
same,TGI,[13],> 100 µM
same,TGI,[14],> 100 µM
same,TGI,[15],> 100 µM
same,TGI,[16],> 100 µM
same,TGI,[17],> 100 µM
same,TGI,[18],> 100 µM
same,TGI,[19],> 100 µM
same,TGI,[20],> 100 µM
same,TGI,[21],> 100 µM
same,TGI,[22],> 100 µM
same,TGI,[23],> 100 µM
same,TGI,[24],> 100 µM
same,TGI,[25],> 100 µM
same,TGI,[59],> 100 µM
same,TGI,[26],> 100 µM
same,TGI,[27],> 100 µM
same,TGI,[28],> 100 µM
same,TGI,[29],> 100 µM
same,TGI,[30],> 100 µM
same,TGI,[31],> 100 µM
same,TGI,[32],> 100 µM
same,TGI,[33],> 100 µM
same,TGI,[34],> 100 µM
same,TGI,[35],> 100 µM
same,TGI,[36],> 100 µM
same,TGI,[37],> 100 µM
same,TGI,[38],> 100 µM
same,TGI,[39],> 100 µM
same,TGI,[40],> 100 µM
same,TGI,[41],> 100 µM
same,TGI,[42],> 100 µM
same,TGI,[43],> 100 µM
same,TGI,[44],> 100 µM
same,TGI,[45],> 100 µM
same,TGI,[46],> 100 µM
same,TGI,[47],> 100 µM
same,TGI,[48],> 100 µM
same,TGI,[49],> 100 µM
same,TGI,[50],> 100 µM
same,TGI,[51],> 100 µM
same,TGI,[52],> 100 µM
same,TGI,[53],> 100 µM
same,TGI,[54],> 100 µM
same,TGI,[55],> 100 µM
same,TGI,[56],> 100 µM
